Results as given in the NIST ThermoML archive (doi:10.1016/j.fluid.2013.10.029).

Columns and labels:
[1] = Liquid; for vapor or sublimation pressure: Ebulliometric method (Recirculating still); for mass density: 101 kPa, Vibrating tube method
[2] = excess molar enthalpy (molar enthalpy of mixing); xn = mol fraction of the nth substance listed; details: 298.15 K, 101 kPa, Liquid, isothermal titration calorimeter
[3] = xn = mol fraction of the nth substance listed; details: 101.33 kPa, Liquid, Vibrating tube method, x2 = 0

C1CCCCC1 [cyclohexane]
[1]
Details | vapor or sublimation pressure [kPa]
338.15 K | 61.5
348.15 K | 84.7

c1cc[nH]c1 [pyrrole]
[1]
Details | mass density [kg/m3] | vapor or sublimation pressure [kPa]
298.15 K | 965.54 | –
308.15 K | 956.83 | –
318.15 K | 948.03 | –
328.15 K | 939.14 | –
338.15 K | 930.13 | 9.4
348.15 K | – | 14.6
353.15 K | – | 18
358.15 K | – | 21.9
363.15 K | – | 26.8
373.15 K | – | 38.5

c1cc[nH]c1 [pyrrole] + CCCCCO
[2]
Details | excess molar enthalpy [kcal/mol]
x1 = 0.0374 | 0.00848
x1 = 0.0962 | 0.0373
x1 = 0.1388 | 0.0644
x1 = 0.1801 | 0.0927
x1 = 0.2202 | 0.12
x1 = 0.259 | 0.147
x1 = 0.2967 | 0.171
x1 = 0.3333 | 0.193
x1 = 0.3689 | 0.212
x1 = 0.4034 | 0.229
x1 = 0.437 | 0.243
x1 = 0.4696 | 0.254
x1 = 0.5014 | 0.263
x1 = 0.5323 | 0.269
x1 = 0.5604 | 0.271
x1 = 0.5624 | 0.273
x1 = 0.5804 | 0.272
x1 = 0.5916 | 0.275
x1 = 0.6004 | 0.273
x1 = 0.6202 | 0.275
x1 = 0.6204 | 0.272
x1 = 0.6404 | 0.271
x1 = 0.648 | 0.272
x1 = 0.6604 | 0.268
x1 = 0.6616 | 0.27
x1 = 0.6804 | 0.264
x1 = 0.7004 | 0.259
x1 = 0.7204 | 0.253
x1 = 0.7404 | 0.245
x1 = 0.7604 | 0.236
x1 = 0.7804 | 0.226
x1 = 0.8004 | 0.214
x1 = 0.8204 | 0.2
x1 = 0.8404 | 0.185
x1 = 0.8603 | 0.169
x1 = 0.8803 | 0.15
x1 = 0.9002 | 0.13
x1 = 0.9202 | 0.108
x1 = 0.9401 | 0.084
x1 = 0.9601 | 0.0576
x1 = 0.98 | 0.0289

c1cc[nH]c1 [pyrrole] + CCCCO
[2]
Details | excess molar enthalpy [kcal/mol]
x1 = 0.0262 | 0.00454
x1 = 0.0776 | 0.0248
x1 = 0.1154 | 0.0454
x1 = 0.1526 | 0.0679
x1 = 0.189 | 0.091
x1 = 0.2248 | 0.114
x1 = 0.2599 | 0.135
x1 = 0.2944 | 0.155
x1 = 0.3283 | 0.174
x1 = 0.3616 | 0.19
x1 = 0.3943 | 0.205
x1 = 0.4265 | 0.217
x1 = 0.4581 | 0.228
x1 = 0.4891 | 0.236
x1 = 0.5196 | 0.242
x1 = 0.5497 | 0.246
x1 = 0.5703 | 0.246
x1 = 0.5792 | 0.248
x1 = 0.5803 | 0.246
x1 = 0.6003 | 0.247
x1 = 0.6082 | 0.248
x1 = 0.6203 | 0.246
x1 = 0.6225 | 0.248
x1 = 0.6403 | 0.244
x1 = 0.6603 | 0.241
x1 = 0.6803 | 0.238
x1 = 0.7003 | 0.233
x1 = 0.7203 | 0.227
x1 = 0.7403 | 0.22
x1 = 0.7603 | 0.211
x1 = 0.7803 | 0.202
x1 = 0.8002 | 0.191
x1 = 0.8202 | 0.179
x1 = 0.8403 | 0.166
x1 = 0.8603 | 0.151
x1 = 0.8802 | 0.135
x1 = 0.9002 | 0.117
x1 = 0.9201 | 0.0972
x1 = 0.9401 | 0.0761
x1 = 0.9601 | 0.0532
x1 = 0.98 | 0.0285

c1ccncc1 [pyridine] + c1cc[nH]c1
[3]
Details | mass density [kg/m3]
298.15 K | 978.01
308.15 K | 967.91
318.15 K | 957.76
328.15 K | 947.56
338.15 K | 937.3

c1ccccc1 [benzene]
[1]
Details | vapor or sublimation pressure [kPa]
338.15 K | 62.1
348.15 K | 86.4

c1cc[nH]c1 [pyrrole] + C1CCCCC1
[2]
Details | excess molar enthalpy [kcal/mol]
x1 = 0.015 | 0.056
x1 = 0.03 | 0.0991
x1 = 0.0451 | 0.131
x1 = 0.0601 | 0.155
x1 = 0.0752 | 0.175
x1 = 0.0905 | 0.192
x1 = 0.1057 | 0.207
x1 = 0.1208 | 0.221
x1 = 0.1358 | 0.233
x1 = 0.1543 | 0.246
x1 = 0.1692 | 0.255
x1 = 0.184 | 0.264
x1 = 0.1989 | 0.272
x1 = 0.2139 | 0.279
x1 = 0.2288 | 0.286
x1 = 0.2437 | 0.292
x1 = 0.2587 | 0.297
x1 = 0.2737 | 0.302
x1 = 0.2887 | 0.307
x1 = 0.3037 | 0.311
x1 = 0.3186 | 0.315
x1 = 0.3337 | 0.319
x1 = 0.3485 | 0.322
x1 = 0.3677 | 0.327
x1 = 0.3829 | 0.33
x1 = 0.3982 | 0.333
x1 = 0.4135 | 0.335
x1 = 0.4287 | 0.337
x1 = 0.444 | 0.338
x1 = 0.4592 | 0.34
x1 = 0.4745 | 0.341
x1 = 0.4898 | 0.341
x1 = 0.505 | 0.341
x1 = 0.5203 | 0.341
x1 = 0.5355 | 0.34
x1 = 0.5507 | 0.34
x1 = 0.566 | 0.338
x1 = 0.5812 | 0.337
x1 = 0.5964 | 0.335
x1 = 0.6116 | 0.332
x1 = 0.6269 | 0.329
x1 = 0.6421 | 0.325
x1 = 0.6573 | 0.321
x1 = 0.6725 | 0.317
x1 = 0.6878 | 0.312
x1 = 0.703 | 0.306
x1 = 0.7182 | 0.298
x1 = 0.731 | 0.289
x1 = 0.7468 | 0.28
x1 = 0.7627 | 0.269
x1 = 0.7786 | 0.259
x1 = 0.7945 | 0.248
x1 = 0.8104 | 0.236
x1 = 0.8263 | 0.223
x1 = 0.8421 | 0.209
x1 = 0.858 | 0.193
x1 = 0.874 | 0.177
x1 = 0.8899 | 0.159
x1 = 0.9058 | 0.139
x1 = 0.9218 | 0.119
x1 = 0.9377 | 0.0962
x1 = 0.9537 | 0.0726
x1 = 0.9691 | 0.0481
x1 = 0.9846 | 0.0222

c1ccncc1 [pyridine]
[1]
Details | mass density [kg/m3] | vapor or sublimation pressure [kPa]
298.15 K | 978.01 | –
308.15 K | 967.91 | –
318.15 K | 957.76 | –
328.15 K | 947.56 | –
338.15 K | 937.3 | –
353.15 K | – | 32.3
363.15 K | – | 45.9
373.15 K | – | 63.7

c1cc[nH]c1 [pyrrole] + CCCO
[2]
Details | excess molar enthalpy [kcal/mol]
x1 = 0.0299 | 0.00707
x1 = 0.0598 | 0.0144
x1 = 0.0897 | 0.0255
x1 = 0.1197 | 0.0392
x1 = 0.1497 | 0.0547
x1 = 0.1796 | 0.071
x1 = 0.2096 | 0.0877
x1 = 0.2396 | 0.104
x1 = 0.2696 | 0.12
x1 = 0.2996 | 0.136
x1 = 0.3296 | 0.15
x1 = 0.3596 | 0.163
x1 = 0.3896 | 0.175
x1 = 0.4197 | 0.185
x1 = 0.4497 | 0.193
x1 = 0.4652 | 0.199
x1 = 0.4797 | 0.2
x1 = 0.4902 | 0.205
x1 = 0.5202 | 0.211
x1 = 0.5502 | 0.215
x1 = 0.5803 | 0.217
x1 = 0.6103 | 0.218
x1 = 0.6403 | 0.216
x1 = 0.6703 | 0.212
x1 = 0.7003 | 0.206
x1 = 0.7303 | 0.198
x1 = 0.7603 | 0.188
x1 = 0.7903 | 0.175
x1 = 0.8203 | 0.159
x1 = 0.8503 | 0.14
x1 = 0.8802 | 0.119
x1 = 0.9101 | 0.0942
x1 = 0.9401 | 0.0658
x1 = 0.97 | 0.0338
